Laboratory results from patent US8507520B2, “Polysubstituted 2-aryl-6-phenylimidazo[1,2-A]pyridine derivatives, and preparation and therapeutic use thereof” (Sanofi, priority 2008, dated 2013).

Test system: not given
Assay: not given
Conditions: not given

Structure (SMILES)	melting point [°C]
Cc1cc(-c2cccc(CO)c2)cn2cc(-c3ccc(Cl)cc3)nc12 [Compound 1, {3-[2-(4-Chlorophenyl)-8-methylimidazo[1,2-α]pyridin-6-yl]phenyl}methanol]	174 to 177

Target: T1, mouse Nurr1 receptor (Mus musculus, UniProt Q06219)
T1 construct: a cell line (N2A) endogenously expressing the mouse Nurr1 receptor; host or cells: Neuro-2A (N2A) mouse neuroblastoma cells stably transfected with 8NBRE-luciferase
T1 sequence (Q06219 whole entry): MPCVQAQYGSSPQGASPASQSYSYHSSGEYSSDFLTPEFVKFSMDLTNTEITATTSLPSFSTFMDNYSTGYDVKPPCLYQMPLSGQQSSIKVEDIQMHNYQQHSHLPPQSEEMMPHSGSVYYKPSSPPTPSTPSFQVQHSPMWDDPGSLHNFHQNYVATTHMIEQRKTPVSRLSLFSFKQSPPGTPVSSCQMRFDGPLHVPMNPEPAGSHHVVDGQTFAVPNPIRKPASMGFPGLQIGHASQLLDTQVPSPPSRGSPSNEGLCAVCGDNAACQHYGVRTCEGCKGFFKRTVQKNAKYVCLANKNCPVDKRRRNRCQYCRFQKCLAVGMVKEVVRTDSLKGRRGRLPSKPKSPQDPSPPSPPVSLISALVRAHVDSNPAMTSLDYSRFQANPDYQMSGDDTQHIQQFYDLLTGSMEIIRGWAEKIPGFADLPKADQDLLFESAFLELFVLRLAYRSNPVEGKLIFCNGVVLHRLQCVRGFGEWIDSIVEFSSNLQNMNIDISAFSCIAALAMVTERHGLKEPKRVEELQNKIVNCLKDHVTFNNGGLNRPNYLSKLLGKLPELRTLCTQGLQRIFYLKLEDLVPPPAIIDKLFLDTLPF
Assay: In vitro activity on N2A cells (NBRE-luciferase reporter)
Format: cell-based
Conditions: N2A-8NBRE cells, products incubated 24 hours
Method: Evaluation of the In Vitro Activity on N2A Cells
• The activity of the compounds according to the invention was evaluated on a cell line (N2A) endogenously expressing the mouse Nurr1 receptor and stabily transfected with the NOT binding response element (NBRE) coupled to the luciferase reporter gene. The EC50 values are between 0.01 and 10 μM. The tests were carried out according to the procedure described below. • The Neuro-2A cell line comes from a standard commercial source (ATCC). The Neuro-2A clone was obtained from a spontaneous tumour originating from a mouse A albino strain by R. J. Klebe et al. This Neuro-2A line is subsequently stabily transfected with 8NBRE-luciferase. The N2A-8NBRE cells are cultured to confluence in 75 cm^2 culture flasks containing DMEM supplemented with 10% of foetal calf serum, 4.5 g/l of glucose and 0.4 mg/ml of geneticin. After one week of culture, the cells are recovered with 0.25% trypsin for 30 seconds and then resuspended in DMEM without phenol red, containing 4.5 g/l of glucose, 10% of Hyclone defatted serum, and deposited in white, transparent-bottom, 96-well plates. The cells are deposited at a rate of 60 000 per well in 75 μl for 24 hours before the addition of the products. The products were applied in 25 μl and incubated for a further 24 hours. On the day of measurement, an equivalent volume (100 μl) of Steadylite is added to each well, followed by a waiting period of 30 minutes in order to obtain complete lysis of the cells and maximum production of the signal. The plates are then measured in a microplate luminescence counter after having been sealed with an adhesive film. The products are prepared in the form of a stock solution at 10^−2 M, and then diluted in 100% of DMSO. Each product concentration is diluted beforehand in culture medium before incubation with the cells thus containing a final concentration of 0.625% of DMSO. […] It therefore appears that the compounds according to the invention have a NOT-modulating effect.

Structure (SMILES)	EC50 [nM]
Cc1cc(-c2cccc(CO)c2)cn2cc(-c3ccc(Cl)cc3)nc12 [Compound 1, {3-[2-(4-Chlorophenyl)-8-methylimidazo[1,2-α]pyridin-6-yl]phenyl}methanol]	5
Cc1c(-c2ccccc2)nc2ccc(-c3cccc(CO)c3)cn12 [Compound 3, [3-(3-Methyl-2-phenylimidazo[1,2-α]pyridin-6-yl)phenyl]methanol]	0.5
Cc1cc(-c2ccc(CO)cc2)cn2cc(-c3ccc4ccccc4c3)nc12 [Compound 10, [4-(8-methyl-2-naphthyl-2-ylimidazo[1,2-α]pyridin-6-yl)phenyl]methanol]	68
COc1ccc(-c2nc3ccc(-c4cccc(C(C)(C)O)c4)cn3c2C)cc1 [Compound 15, 2-{3-[2-(4-methoxyphenyl)-3-methylimidazo[1,2-α]pyridin-6-yl]phenyl}propan-2-ol]	161
Cc1c(-c2cccc(Cl)c2)nc2ccc(-c3ccc(F)c(CO)c3F)cn12 [Compound 19, {3-[2-(3-chlorophenyl)-3-methylimidazo[1,2-α]pyridin-6-yl]-2,6-difluorophenyl}methanol]	1.7
